The results in this text go back to paper PMC12947280, “An Antifungal with a Novel Mechanism of Action Discovered via Resistance Gene-Guided Genome Mining” (ACS Central Science, 2026).

≈ marks a conversion by molar mass, not a printed value.

For series [1], the target named is T1, S. cerevisiae ALS wild type (Saccharomyces cerevisiae, UniProt P07342).
T1 construct: made in house; host or cells: E. coli BL21 (DE3), pET28a-ScILV2
Briefly: ALS biochemical assay (ScALS), wild type. The procedure: ALS biochemical assay (ScALS)
Saccharomyces cerevisiae acetohydroxyacid synthase (ScALS) lacking the N-terminal […]
Escherichia coli as an N-terminally His6-tagged protein. Assays (50 µL final volume) contained […]
adenine dinucleotide, 10 mM MgCl2, 1 mM DTT, 1% DMSO (± inhibitor) in 500 mM K2HPO4 buffer at pH 7.5. Following a 30 min pre-incubation of the enzyme and inhibitor in the reaction mixture at room temperature, reactions were initiated with the addition of pyruvate. ScALS assays were carried out at 30 °C for 60 min. The reaction was quenched with the addition of 5 µL of 10% H2SO4 (v/v in deionized water). Reactions were incubated at 60 °C at 800 rpm in an […]
to acetoin. Subsequently, the concentration of acetoin was determined by the addition of 7.5 µL 6 M NaOH, 25 µL 0.5% creatine (w/v in deionized water), and 25 µL 4% 1-naphthol (w/v in 2.5 M NaOH). This mixture was incubated at 60 °C at 800 rpm in an incubating microplate shaker for […]
40 µL of this reaction mixture was transferred to a half area UV-star 96-well plate (Grenier) and the absorbance at 525 nm was measured on a Spark multimode plate reader (Tecan). The percent inhibition was calculated by the comparison of the signal to DMSO (0% […]
IC50 values were calculated from the dose response curves using Prism 9 (four parameter, variable slope). […]
Expression and purification of ScALS
S. cerevisiae ILV2 (the gene or ScALS) lacking the N-terminal mitochondrial-localization tag

The target in another series is C. albicans ALS (Candida albicans, UniProt A0A1D8PJF9). Briefly: ALS biochemical assay (CaALS).
A further series concerns A. fumigatus. Briefly: Inhibition of A. fumigatus growth. The class given is cell-based. The following applies: Aspergillus fumigatus.
A short description of another series: Plasma stability, human. As to conditions: read-out: Plasma t1/2 Human. The class given is in vitro ADME.
Series [2] is described as follows: Liver microsome stability, human. The class given is in vitro ADME. As to conditions: human liver microsomes; read-out: Liver microsome t1/2 Human. Background: Liver microsomes are a subcellular fraction often used to study metabolism.
A further series deals with T2, S. cerevisiae ALS (Saccharomyces cerevisiae, UniProt P07342).
T2 construct: made in house; host or cells: E. coli BL21 (DE3), pET28a-ScILV2
Briefly: FAD cofactor reoxidation upon incubation with ALS. The class given is biochemical. As to conditions: in contrast to accumulative inhibitors 2 and 3.

Another series has as its target T3, ScALS (Saccharomyces cerevisiae, UniProt P07342).
T3 construct: made in house; host or cells: E. coli BL21 (DE3), pET28a-ScILV2
Put plainly: Intact protein mass spectrometry. The class given is binding. The following applies: 10 μM, 30 min. The text has this: (§1) We next characterized the structural basis for binding of 1 to ALS. Given the strained structure and the observed tight binding kinetics, we hypothesized that 1 may be binding covalently. Analysis of ALS from both AfALS and ScALS by intact protein mass spectrometry yielded traces with multiple proteoforms for both proteins. […] Limited proteolysis followed by peptide mapping localized the covalent attachment to the 239[…]258 peptide of ScALS with Lys251 and Asp252 (equivalent to Lys310 and Asp311 in AfALS) serving as the most likely attachment sites (Figure S7).
Biomek FX, Beckman Coulter Fullerton CA) were used to conduct serial dilutions and liquid […]
Solutions of 1 were added in an 11 point 2x serial dilution in DMSO with a maximum tested concentration of 32 μg/ml in the culture medium. Drug solution was added at 1% v/v into 200 μl […]
After digestion, the peptide mixture was immediately analysed by LC-MS/MS using a Waters I-class UPLC equipped with an ACQUITY UPLC BEH C18 column (2.1x50 mm, 1.7 µm, Waters) at 50 °C coupled to a Waters Synapt G2Si MS. […]

A further series concerns AfALS. Put plainly: Intact protein mass spectrometry. The class given is binding, Aspergillus fumigatus. As to conditions: 10 μM, 30 min.
Source text: as §1

Series [3] can be described thus: physchem. The following applies: aqueous with cosolvent or surfactant or cyclodextrin, kinetic from dmso stock.
Series [4] in a line: physchem. The following applies: buffer, pH 7.4.

The IC50 is the concentration at which inhibition is half-maximal. One may read the EC50 as the concentration needed to bring the measured effect to its halfway point. As usually defined, the kinetic solubility is solubility judged after dilution from a stock solution rather than from solid.

T1 sequence (P07342 58-687): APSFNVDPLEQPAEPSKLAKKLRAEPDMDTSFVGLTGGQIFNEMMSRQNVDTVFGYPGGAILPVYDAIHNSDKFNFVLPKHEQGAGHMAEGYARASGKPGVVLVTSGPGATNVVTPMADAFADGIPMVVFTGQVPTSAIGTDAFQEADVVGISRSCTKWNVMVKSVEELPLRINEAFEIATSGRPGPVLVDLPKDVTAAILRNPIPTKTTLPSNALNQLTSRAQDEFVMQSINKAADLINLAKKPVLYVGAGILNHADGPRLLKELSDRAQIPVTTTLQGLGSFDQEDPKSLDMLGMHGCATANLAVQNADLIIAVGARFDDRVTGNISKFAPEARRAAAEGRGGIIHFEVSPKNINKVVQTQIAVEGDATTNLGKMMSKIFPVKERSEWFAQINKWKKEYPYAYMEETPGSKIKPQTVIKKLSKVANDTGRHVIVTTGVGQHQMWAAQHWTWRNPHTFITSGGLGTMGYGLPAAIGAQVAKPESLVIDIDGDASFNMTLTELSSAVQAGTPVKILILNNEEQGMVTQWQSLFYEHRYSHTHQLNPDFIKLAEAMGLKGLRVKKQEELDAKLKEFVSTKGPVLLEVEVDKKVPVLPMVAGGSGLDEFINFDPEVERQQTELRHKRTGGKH
T2 sequence (P07342 58-687): as above
T3 sequence (P07342 58-687): as above
Sequence of C. albicans ALS (A0A1D8PJF9 entry or part of it): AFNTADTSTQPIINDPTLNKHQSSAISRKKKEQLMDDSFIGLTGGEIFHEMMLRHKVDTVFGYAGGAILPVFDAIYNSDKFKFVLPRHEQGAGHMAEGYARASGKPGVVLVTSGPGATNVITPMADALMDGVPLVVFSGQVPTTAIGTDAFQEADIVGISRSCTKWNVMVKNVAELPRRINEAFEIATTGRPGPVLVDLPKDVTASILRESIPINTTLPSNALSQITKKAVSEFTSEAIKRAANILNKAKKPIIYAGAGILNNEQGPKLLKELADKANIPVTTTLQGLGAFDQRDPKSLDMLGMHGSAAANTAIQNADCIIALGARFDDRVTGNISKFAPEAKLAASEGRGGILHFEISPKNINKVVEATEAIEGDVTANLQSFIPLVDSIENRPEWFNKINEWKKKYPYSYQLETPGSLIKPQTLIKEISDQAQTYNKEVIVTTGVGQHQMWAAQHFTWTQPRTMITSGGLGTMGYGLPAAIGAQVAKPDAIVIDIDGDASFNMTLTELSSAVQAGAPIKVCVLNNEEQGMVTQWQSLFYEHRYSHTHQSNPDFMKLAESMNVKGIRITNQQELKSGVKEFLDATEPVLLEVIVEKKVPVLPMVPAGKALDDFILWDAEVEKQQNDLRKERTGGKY

Turning to `CCCC1C(C)=CC2CC=CC3(C)C2C1C(=O)C31C(=O)NC(CCCO)C1=O` (stereo not drawn) [compound 1], the “potency against ScALS compared with diastereomer 13” value in series [1] (Figure S6) is “significantly more potent”. The IC50 in series [1] (recombinant ScALS, read-out: S. cerevisiae ALS IC50 Wild type) came out at 15 ± 1 nM; against C. albicans ALS, 60 ± 10 nM; in the series with A. fumigatus (read-out: A. fumigatus growth inhibition IC50), 700 nM. In addition, the EC50 with A. fumigatus (read-out: A. fumigatus growth inhibition EC50 (Figure 4A)) was found to be 700 ± 500 nM. For the same molecule, the half-life in “Plasma stability, human” was 1.32 h; in series [2], 3 min; in “physchem [4]” it was 2.35 h. Also, the “FAD reoxidation upon treatment” value at S. cerevisiae ALS is listed as “no indication of FAD reoxidation”. For the same molecule, the “covalent modification of ScALS (intact mass shift)” value at ScALS is reported as “mass shifts consistent with covalent addition”. Besides, the “covalent modification of AfALS (intact mass shift)” value with AfALS is “mass shifts consistent with covalent addition”. The molecule further displayed a solubility (kinetic) in the series “physchem [3]” of 260 µM (≈ 100 µg/mL).
